Holding throughout (assay type): biochemical
In assay [1] the target is T1, Zap-70 (Homo sapiens, UniProt P43403).
T1 construct: Kinases are expressed as either kinase domains or full length constructs; made in house
T1 sequence (P43403 1-619): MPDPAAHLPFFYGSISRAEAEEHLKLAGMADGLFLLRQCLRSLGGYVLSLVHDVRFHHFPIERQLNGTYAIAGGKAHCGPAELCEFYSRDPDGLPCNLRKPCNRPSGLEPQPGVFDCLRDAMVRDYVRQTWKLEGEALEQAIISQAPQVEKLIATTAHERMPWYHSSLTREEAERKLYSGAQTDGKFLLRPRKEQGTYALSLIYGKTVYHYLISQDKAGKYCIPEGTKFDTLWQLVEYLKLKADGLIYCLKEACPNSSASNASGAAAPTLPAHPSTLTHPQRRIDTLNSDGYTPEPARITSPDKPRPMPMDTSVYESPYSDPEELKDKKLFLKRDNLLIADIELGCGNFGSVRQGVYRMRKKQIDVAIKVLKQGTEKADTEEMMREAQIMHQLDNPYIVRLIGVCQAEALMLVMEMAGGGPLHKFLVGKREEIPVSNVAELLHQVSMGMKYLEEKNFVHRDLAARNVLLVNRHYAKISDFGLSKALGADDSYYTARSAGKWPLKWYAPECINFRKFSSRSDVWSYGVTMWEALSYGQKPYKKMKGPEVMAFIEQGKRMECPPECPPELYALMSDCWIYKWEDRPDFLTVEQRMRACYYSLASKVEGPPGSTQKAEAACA
The experiment in a line: Kinase inhibition assay (33P transfer), Zap-70. To be noted: Table 3; read-out: Zap-1. Put shortly: (§1)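 Measured by scintillation: radiolabelled phosphate added by tagged recombinant kinases to poly(Glu,Tyr) 4:1 or poly(Arg,Ser) 3:1 attached to microtiter wells, counted once free label was washed away with 0.5% phosphoric acid.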

The target in assay [2] is T2, Itk (Homo sapiens, UniProt Q08881).
T2 construct: Kinases are expressed as either kinase domains or full length constructs; made in house
T2 sequence (Q08881 1-620): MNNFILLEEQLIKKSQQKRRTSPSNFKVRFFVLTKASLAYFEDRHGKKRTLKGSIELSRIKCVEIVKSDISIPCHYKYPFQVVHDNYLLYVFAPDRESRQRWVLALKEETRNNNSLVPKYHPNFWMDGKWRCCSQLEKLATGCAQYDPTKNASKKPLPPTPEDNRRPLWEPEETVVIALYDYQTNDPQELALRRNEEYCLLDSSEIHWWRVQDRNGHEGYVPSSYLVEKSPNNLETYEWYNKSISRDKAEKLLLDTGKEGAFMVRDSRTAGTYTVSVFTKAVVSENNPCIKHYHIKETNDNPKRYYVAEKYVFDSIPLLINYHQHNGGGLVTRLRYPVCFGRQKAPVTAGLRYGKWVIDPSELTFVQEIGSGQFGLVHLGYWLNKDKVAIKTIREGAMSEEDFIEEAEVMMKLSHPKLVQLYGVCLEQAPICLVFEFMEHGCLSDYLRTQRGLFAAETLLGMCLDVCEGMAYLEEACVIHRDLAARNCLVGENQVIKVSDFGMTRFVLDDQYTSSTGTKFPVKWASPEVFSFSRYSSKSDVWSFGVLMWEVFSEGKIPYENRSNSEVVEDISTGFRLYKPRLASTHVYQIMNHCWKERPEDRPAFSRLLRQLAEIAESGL
The experiment in a line: Kinase inhibition assay (33P transfer), Itk. To be noted: Table 3; read-out: Itk-1. Put shortly:
(§2)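 IC50: inhibitor concentration lowering 33P incorporation into immobilised substrate by 50%. Label transferred from ATP to poly(Glu,Tyr) 4:1 or poly(Arg,Ser) 3:1 is measured after a 0.5% phosphoric acid wash by liquid scintillation.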

In assay [3] the target is T3, ErbB2 (Homo sapiens, UniProt P04626).
T3 construct: Kinases are expressed as either kinase domains or full length constructs; made in house
The assay can be described thus: Kinase inhibition assay (33P transfer), ErbB2. The following applies: read-out: ErbB2-2. Put shortly:
as §2

For assay [4], the target named is T4, Kdr (Homo sapiens, UniProt P35968).
T4 construct: Kinases are expressed as either kinase domains or full length constructs; made in house
The assay can be described thus: Kinase inhibition assay (33P transfer), Kdr. The following applies: Table 3; read-out: KDR-1. The procedure, abridged: as §1

Assay [5] concerns the target T5, Ret-1 (Homo sapiens, UniProt P07949).
T5 construct: Kinases are expressed as either kinase domains or full length constructs; made in house
The experiment in a line: Kinase inhibition assay (33P transfer), Ret. To be noted: Table 6, Ret-1 kinase inhibition class.

Our source for the IC50 values is patent publication US7074789B2, “Kinase inhibitors” (Amgen Inc., priority 1999, dated 2006).

Bounds are passed on as bounds.

T5 sequence (P07949 29-1114): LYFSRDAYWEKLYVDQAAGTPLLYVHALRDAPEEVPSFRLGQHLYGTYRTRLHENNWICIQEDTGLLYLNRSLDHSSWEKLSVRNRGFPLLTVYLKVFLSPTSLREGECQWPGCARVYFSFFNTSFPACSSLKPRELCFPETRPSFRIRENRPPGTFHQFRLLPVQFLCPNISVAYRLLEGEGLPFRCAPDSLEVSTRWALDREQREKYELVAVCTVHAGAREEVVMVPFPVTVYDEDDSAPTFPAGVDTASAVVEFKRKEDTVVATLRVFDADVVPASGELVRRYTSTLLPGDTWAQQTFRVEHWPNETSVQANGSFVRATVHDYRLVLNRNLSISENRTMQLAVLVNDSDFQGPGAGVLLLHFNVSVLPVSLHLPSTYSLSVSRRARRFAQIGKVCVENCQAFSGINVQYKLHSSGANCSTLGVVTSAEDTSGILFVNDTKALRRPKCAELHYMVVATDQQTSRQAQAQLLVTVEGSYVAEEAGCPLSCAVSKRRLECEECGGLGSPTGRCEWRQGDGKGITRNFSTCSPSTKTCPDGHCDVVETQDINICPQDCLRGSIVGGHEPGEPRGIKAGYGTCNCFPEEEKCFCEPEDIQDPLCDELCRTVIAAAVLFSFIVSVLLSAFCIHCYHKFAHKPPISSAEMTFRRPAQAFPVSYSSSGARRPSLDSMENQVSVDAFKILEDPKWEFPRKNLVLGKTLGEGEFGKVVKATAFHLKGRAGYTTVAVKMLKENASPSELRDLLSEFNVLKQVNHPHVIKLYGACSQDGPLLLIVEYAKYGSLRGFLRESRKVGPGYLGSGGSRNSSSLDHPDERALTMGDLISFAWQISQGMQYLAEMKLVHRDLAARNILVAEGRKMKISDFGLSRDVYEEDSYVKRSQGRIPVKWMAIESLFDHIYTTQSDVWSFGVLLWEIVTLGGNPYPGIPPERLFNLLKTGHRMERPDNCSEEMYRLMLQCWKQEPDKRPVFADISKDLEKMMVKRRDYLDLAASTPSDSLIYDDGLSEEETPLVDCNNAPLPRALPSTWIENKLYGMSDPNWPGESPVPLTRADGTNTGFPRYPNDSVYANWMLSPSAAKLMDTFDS
T4 sequence (P35968 20-1356, species assumed): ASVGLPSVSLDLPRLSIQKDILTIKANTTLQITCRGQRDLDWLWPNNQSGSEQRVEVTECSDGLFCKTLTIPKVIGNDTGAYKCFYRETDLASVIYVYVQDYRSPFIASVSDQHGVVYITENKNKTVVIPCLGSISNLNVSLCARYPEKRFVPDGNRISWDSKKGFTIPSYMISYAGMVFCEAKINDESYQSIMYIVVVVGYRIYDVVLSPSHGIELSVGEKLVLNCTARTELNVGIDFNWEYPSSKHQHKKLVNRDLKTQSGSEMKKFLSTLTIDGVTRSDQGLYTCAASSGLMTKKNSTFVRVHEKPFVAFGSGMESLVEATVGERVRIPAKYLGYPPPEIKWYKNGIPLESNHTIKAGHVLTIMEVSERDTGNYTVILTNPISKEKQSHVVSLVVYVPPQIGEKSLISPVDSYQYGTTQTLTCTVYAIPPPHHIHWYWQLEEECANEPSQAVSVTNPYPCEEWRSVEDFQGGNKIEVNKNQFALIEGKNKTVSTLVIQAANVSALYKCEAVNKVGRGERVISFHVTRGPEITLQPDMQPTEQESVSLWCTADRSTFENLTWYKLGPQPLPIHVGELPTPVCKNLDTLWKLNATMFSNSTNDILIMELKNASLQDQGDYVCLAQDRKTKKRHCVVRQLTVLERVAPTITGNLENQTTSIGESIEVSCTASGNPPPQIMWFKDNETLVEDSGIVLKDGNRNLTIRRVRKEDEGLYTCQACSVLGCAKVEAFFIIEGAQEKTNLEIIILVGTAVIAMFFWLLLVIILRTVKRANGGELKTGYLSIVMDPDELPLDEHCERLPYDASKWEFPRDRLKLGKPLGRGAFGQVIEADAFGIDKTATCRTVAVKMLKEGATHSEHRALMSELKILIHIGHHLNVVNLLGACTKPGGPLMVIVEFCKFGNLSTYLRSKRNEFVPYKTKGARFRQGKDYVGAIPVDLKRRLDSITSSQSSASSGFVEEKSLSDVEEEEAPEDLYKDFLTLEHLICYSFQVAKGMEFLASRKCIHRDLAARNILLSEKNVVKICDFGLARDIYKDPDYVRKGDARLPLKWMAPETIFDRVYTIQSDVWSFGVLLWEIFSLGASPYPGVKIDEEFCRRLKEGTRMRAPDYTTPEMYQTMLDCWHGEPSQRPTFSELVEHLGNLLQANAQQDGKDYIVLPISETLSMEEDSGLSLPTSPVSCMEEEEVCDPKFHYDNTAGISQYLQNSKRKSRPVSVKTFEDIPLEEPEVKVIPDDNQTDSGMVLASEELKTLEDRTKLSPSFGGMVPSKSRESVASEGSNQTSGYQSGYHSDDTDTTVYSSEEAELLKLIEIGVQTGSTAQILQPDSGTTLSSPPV
T3 sequence (P04626 23-1255, species assumed): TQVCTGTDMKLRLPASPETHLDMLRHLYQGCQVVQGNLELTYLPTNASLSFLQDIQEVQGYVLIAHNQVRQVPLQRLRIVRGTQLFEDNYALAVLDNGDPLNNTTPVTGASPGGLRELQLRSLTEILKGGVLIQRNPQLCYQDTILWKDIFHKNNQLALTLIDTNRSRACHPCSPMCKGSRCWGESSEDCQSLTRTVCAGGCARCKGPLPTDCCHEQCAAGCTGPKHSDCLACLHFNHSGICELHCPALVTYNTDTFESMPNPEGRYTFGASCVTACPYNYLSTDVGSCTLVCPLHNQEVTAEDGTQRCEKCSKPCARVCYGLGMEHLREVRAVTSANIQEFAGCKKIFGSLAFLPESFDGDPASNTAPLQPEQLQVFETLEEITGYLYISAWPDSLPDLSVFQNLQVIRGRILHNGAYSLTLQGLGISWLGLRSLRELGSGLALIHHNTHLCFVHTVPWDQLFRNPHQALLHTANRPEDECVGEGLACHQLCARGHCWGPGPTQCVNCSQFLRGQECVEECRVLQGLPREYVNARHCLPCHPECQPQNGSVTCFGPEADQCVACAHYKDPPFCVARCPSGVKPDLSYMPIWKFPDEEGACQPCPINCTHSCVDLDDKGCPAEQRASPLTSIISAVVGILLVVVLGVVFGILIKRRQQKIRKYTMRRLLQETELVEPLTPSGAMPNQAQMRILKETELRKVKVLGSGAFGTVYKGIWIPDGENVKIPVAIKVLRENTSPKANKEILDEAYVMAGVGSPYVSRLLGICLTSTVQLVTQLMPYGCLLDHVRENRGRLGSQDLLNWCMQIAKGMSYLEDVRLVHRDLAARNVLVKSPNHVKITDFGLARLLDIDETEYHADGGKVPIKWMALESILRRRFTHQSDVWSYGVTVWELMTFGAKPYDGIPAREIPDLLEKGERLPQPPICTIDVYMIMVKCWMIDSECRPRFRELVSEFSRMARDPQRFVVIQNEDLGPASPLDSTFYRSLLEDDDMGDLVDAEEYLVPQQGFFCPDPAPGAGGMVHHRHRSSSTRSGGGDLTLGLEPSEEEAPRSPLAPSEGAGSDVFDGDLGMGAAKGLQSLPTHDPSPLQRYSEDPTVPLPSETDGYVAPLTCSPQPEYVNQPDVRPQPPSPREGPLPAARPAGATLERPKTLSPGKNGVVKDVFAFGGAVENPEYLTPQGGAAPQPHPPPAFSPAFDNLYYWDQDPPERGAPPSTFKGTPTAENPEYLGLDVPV

For `COc1cc(Nc2ncnc(Nc3cc(-c4ccccc4)n[nH]3)n2)cc(OC)c1OC` [Compound 102], the IC50 in assay [1] is more than 10.7 µM; in assay [2] it was 0.954 to 5.72 µM; in assay [3] it was 0.954 to 5.72 µM; in assay [4] it was less than 0.954 µM; in assay [5], 0.954 to 5.72 µM.
In the case of `COc1cc(Nc2ncnc(-n3c(N)nc4ccccc43)n2)cc(OC)c1OC` [Compound 289], the IC50 is more than 11.4 µM in assay [1]; 1.02 to 6.1 µM in assay [2]; more than 11.4 µM in assay [3]; less than 1.02 µM in assay [4]; 1.02 to 6.1 µM in assay [5].
`COc1cc(Nc2ncnc(NC(=O)Nc3ccccc3)n2)cc(OC)c1OC` [Compound 852]: the IC50 was 8.83 to 11.4 µM in assay [1]; more than 11.4 µM in assay [2]; 6.05 to 8.83 µM in assay [3]; 6.05 to 8.83 µM in assay [4]; 6.05 to 8.83 µM in assay [5].
As for `COc1cc(Nc2ncnc(Nc3ccc4ccccc4c3)n2)cc(OC)c1OC` [Compound 96], the IC50 was 8.68 to 11.2 µM in assay [1]; more than 11.2 µM in assay [2]; less than 0.991 µM in assay [3]; 0.991 to 5.95 µM in assay [4]; 5.95 to 8.68 µM in assay [5].
With `COc1cc(Nc2ncnc(Nc3ccc(Oc4ccccc4)cc3)n2)cc(OC)c1OC` [Compound 29], the IC50 is more than 10.1 µM in assay [1], more than 10.1 µM in assay [2], less than 0.898 µM in assay [4] and less than 0.898 µM in assay [5].
As for `COc1cc(Nc2ncnc(Nc3ccc(N)cc3)n2)cc(OC)c1OC` [Compound 92], the IC50 is 9.5 to 12.2 µM in assay [1], more than 12.2 µM in assay [2], 1.09 to 6.51 µM in assay [4] and more than 12.2 µM in assay [5].
As for `COc1cc(Nc2ncnc(Nc3ccc(C)c(O)c3)n2)cc(OC)c1OC` [Compound 83], the IC50 in assay [1] was more than 11.7 µM; in assay [2], 1.04 to 6.26 µM; in assay [3] it was less than 1.04 µM; in assay [4], less than 1.04 µM; in assay [5], less than 1.04 µM.
Regarding `COc1cc(Nc2ncnc(Nc3ccc(OCc4ccccc4)cc3)n2)cc(OC)c1OC` [Compound 926], the IC50 in assay [1] is 5.22 to 7.62 µM; in assay [2], more than 9.79 µM; in assay [4], less than 0.871 µM; in assay [5] it was 7.62 to 9.79 µM.
As to `COc1cc(Nc2ncnc(Nc3cccc4cccnc34)n2)cc(OC)c1OC` [Compound 97], the IC50 in assay [1] is more than 11.1 µM; in assay [2], more than 11.1 µM; in assay [3], more than 11.1 µM; in assay [4], less than 0.989 µM; in assay [5], 0.989 to 5.93 µM.
Consider `COc1cc(Nc2ncnc(Nc3cnc4ccccc4c3)n2)cc(OC)c1OC` [Compound 99], for which the IC50 in assay [1] is more than 11.1 µM; in assay [2], more than 11.1 µM; in assay [4] it was less than 0.989 µM; in assay [5] it was 0.989 to 5.93 µM.
Consider `COc1cccc(Nc2ncnc(Nc3cc(OC)c(OC)c(OC)c3)n2)c1` [Compound 87], for which the IC50 is 9.13 to 11.7 µM in assay [1]; more than 11.7 µM in assay [2]; less than 1.04 µM in assay [3]; 1.04 to 6.26 µM in assay [4]; 1.04 to 6.26 µM in assay [5].
With `COc1cc(Nc2ncnc(Nc3cc(C)c(O)cc3C)n2)cc(OC)c1OC` [Compound 94], the IC50 in assay [1] was more than 11.3 µM; in assay [2], more than 11.3 µM; in assay [4], less than 1.01 µM; in assay [5], more than 11.3 µM.
In the case of `COc1cc(Nc2ncnc(Nc3ccccc3C)n2)cc(OC)c1OC` [Compound 67], the IC50 in assay [1] was more than 12.2 µM; in assay [2], more than 12.2 µM; in assay [4], 1.09 to 6.53 µM; in assay [5] it was more than 12.2 µM.
On to `COc1cc(Nc2ncnc(Nc3ccc4[nH]ccc4c3)n2)cc(OC)c1OC` [Compound 928], for which the IC50 in assay [1] was more than 11.5 µM; in assay [2], 6.12 to 8.92 µM; in assay [3] it was less than 1.02 µM; in assay [4], less than 1.02 µM; in assay [5], less than 1.02 µM.
With `COc1cc(Nc2ncnc(Nc3ccc(Br)cc3)n2)cc(OC)c1OC` [Compound 82], the IC50 is more than 10.4 µM in assay [1], more than 10.4 µM in assay [2], less than 0.925 µM in assay [4] and 0.925 to 5.55 µM in assay [5].
As to `COc1cc(Nc2ncnc(Nc3ccc4[nH]ncc4c3)n2)cc(OC)c1OC` [Compound 79], the IC50 was more than 11.4 µM in assay [1], less than 1.02 µM in assay [2], less than 1.02 µM in assay [4] and more than 11.4 µM in assay [5].
Regarding `COc1cc(Nc2ncnc(Nc3ccc(O)cc3Cl)n2)cc(OC)c1OC` [Compound 77], the IC50 in assay [1] was more than 11.1 µM; in assay [2], 8.67 to 11.1 µM; in assay [4] it was less than 0.991 µM; in assay [5], 0.991 to 5.94 µM.
Taken in the same sequence, the figures for `COc1cc(Nc2ncnc(-n3cc(CC(N)=O)c4ccccc43)n2)cc(OC)c1OC` [Compound 353] were more than 10.4 µM, 0.921 to 5.52 µM, less than 0.921 µM and less than 0.921 µM.
With `COc1cc(Nc2ncnc(Nc3cccc4ccccc34)n2)cc(OC)c1OC` [Compound 98], the IC50 in assay [1] was more than 11.2 µM; in assay [2], more than 11.2 µM; in assay [3] it was less than 0.991 µM; in assay [4] it was less than 0.991 µM; in assay [5] it was more than 11.2 µM.
Regarding `NC(=O)c1ccc(Nc2ncnc(Nc3cc(-c4ccco4)n[nH]3)n2)cc1` [Compound 341], the IC50 in assay [1] is more than 12.4 µM; in assay [2] it was 6.62 to 9.66 µM; in assay [4], less than 1.1 µM; in assay [5], less than 1.1 µM.
For `COc1cc(Nc2ncnc(Nc3cc(OC)c(OC)c(OC)c3)n2)cc(OC)c1` [Compound 86], the IC50 in assay [1] is more than 10.9 µM; in assay [2] it was more than 10.9 µM; in assay [3], 0.968 to 5.81 µM; in assay [4], less than 0.968 µM; in assay [5], 0.968 to 5.81 µM.
Regarding `COc1ccccc1Nc1ncnc(Nc2cc(OC)c(OC)c(OC)c2)n1` [Compound 90], the IC50 in assay [1] is more than 11.7 µM; in assay [2], 9.13 to 11.7 µM; in assay [4] it was less than 1.04 µM; in assay [5] it was 1.04 to 6.26 µM.
For `COc1cc(Nc2ncnc(Nc3ccc(C(N)=O)cc3)n2)cc(OC)c1OC` [Compound 33], in that order: more than 11.4 µM, more than 11.4 µM, 1.01 to 6.05 µM and more than 11.4 µM.
For `COc1cc(Nc2ncnc(Nc3cccc(Br)c3)n2)cc(OC)c1OC` [Compound 75], in that order: 8.1 to 10.4 µM, more than 10.4 µM, 0.925 to 5.55 µM and more than 10.4 µM.
Take `COc1cc(Nc2ncnc(Nc3ccc(F)c(Cl)c3)n2)cc(OC)c1OC` [Compound 61]: the IC50 in assay [1] was more than 11.1 µM; in assay [2], more than 11.1 µM; in assay [4], less than 0.986 µM; in assay [5], more than 11.1 µM.
Turning to `COc1cc(Nc2ncnc(Nc3cc(Cl)c(O)c(Cl)c3)n2)cc(OC)c1OC` [Compound 68], the IC50 in assay [1] is more than 10.3 µM; in assay [2], more than 10.3 µM; in assay [4] it was less than 0.913 µM; in assay [5], 0.913 to 5.48 µM.
With `COc1cc(Nc2ncnc(Nc3ccc4cn[nH]c4c3)n2)cc(OC)c1OC` [Compound 70], the IC50 is more than 11.4 µM in assay [1], 8.9 to 11.4 µM in assay [2], less than 1.02 µM in assay [4] and 1.02 to 6.1 µM in assay [5].
For `O=C1OCc2ccc(Nc3ncnc(Nc4cc(-c5ccco5)n[nH]4)n3)cc21` [Compound 364], in that order: more than 12 µM, 6.39 to 9.32 µM, less than 1.07 µM and 1.07 to 6.39 µM.
In the case of `COc1cc(Nc2ncnc(Nc3ccc(Cl)cc3)n2)cc(OC)c1OC` [Compound 72], the IC50 in assay [1] is more than 11.6 µM; in assay [2], more than 11.6 µM; in assay [3] it was 1.03 to 6.19 µM; in assay [4], less than 1.03 µM; in assay [5] it was less than 1.03 µM.
